From PubChem BioAssay AID602341 (The Scripps Research Institute Molecular Screening Center, 2012)
Active and inactive are the calls of the source. The rule behind the calls is not given here.

Tests used:
Test in all cases: cellular hydrolase off-targets, SILAC, ABHD6 analysis – ABPP-SILAC, LC-MS, mouse cells, selectivity assay for DAGLb inhibitor project, late-stage follow-up (AID 602341)
[1] = target: Palmitoyl-protein thioesterase ABHD10, mitochondrial (Mus musculus) (UniProt Q6PE15); conditions: serine hydrolases, hits give low values
Pafah1b3 = conditions: serine hydrolases, hits give low values
Qrsl1 = conditions: serine hydrolases, hits give low values
Kiaa1363 = conditions: serine hydrolases, hits give low values
[2] = target: Prolyl endopeptidase (Mus musculus) (UniProt Q9QUR6); conditions: serine hydrolases, Prep, hits give low values
Dpp8 = conditions: serine hydrolases, hits give low values
Fasn = conditions: serine hydrolases, hits give low values
Prcp = conditions: serine hydrolases, hits give low values
Ache = conditions: serine hydrolases, hits give low values
D230012E17Rik = conditions: serine hydrolases, hits give low values
Prepl = conditions: serine hydrolases, hits give low values
Fam108c = conditions: serine hydrolases, hits give low values
Lypla2 = conditions: serine hydrolases, hits give low values
Pnpla7 = conditions: serine hydrolases, hits give low values
Bat5 = conditions: serine hydrolases, hits give low values
Acot2 = conditions: serine hydrolases, hits give low values
Fam108a = conditions: serine hydrolases, hits give low values
Pnpla8 = conditions: serine hydrolases, hits give low values
Iah1 = conditions: serine hydrolases, hits give low values
Lactb = conditions: serine hydrolases, hits give low values
Lipe = conditions: serine hydrolases, hits give low values
Dpp7 = conditions: serine hydrolases, hits give low values
Pla2g6 = conditions: serine hydrolases, hits give low values
Lonp1 = conditions: serine hydrolases, hits give low values
[3] = target: Platelet-activating factor acetylhydrolase 2, cytoplasmic (Mus musculus) (UniProt Q8VDG7); conditions: serine hydrolases, Pafah2, hits give low values
Lyplal1 = conditions: serine hydrolases, hits give low values
[4] = target: Acyl-protein thioesterase 1 (Mus musculus) (UniProt P97823); conditions: serine hydrolases, Lypla1, hits give low values
Lypla3 = conditions: serine hydrolases, hits give low values
Pafah1b2 = conditions: serine hydrolases, hits give low values
[5] = target: Diacylglycerol lipase-beta (Mus musculus) (UniProt Q91WC9); conditions: serine hydrolases, Daglb, hits give low values
Esd = conditions: serine hydrolases, hits give low values
Abhd11 = conditions: serine hydrolases, hits give low values
Parl = conditions: serine hydrolases, hits give low values
Serhl = conditions: serine hydrolases, hits give low values
Dpp9 = conditions: serine hydrolases, hits give low values
Ctsa = conditions: serine hydrolases, hits give low values
Ppt2 = conditions: serine hydrolases, hits give low values
Faah = conditions: serine hydrolases, hits give low values
Abhd12 = conditions: serine hydrolases, hits give low values
Tpp2 = conditions: serine hydrolases, hits give low values
Pnpla6 = conditions: serine hydrolases, hits give low values
Htra2 = conditions: serine hydrolases, hits give low values
[6] = target: Monoacylglycerol lipase ABHD6 (Mus musculus) (UniProt Q8R2Y0); conditions: serine hydrolases, hits give low values
Apeh = conditions: serine hydrolases, hits give low values
Pme1 = conditions: serine hydrolases, hits give low values
Fam108b = conditions: serine hydrolases, hits give low values
Rbbp9 = conditions: serine hydrolases, hits give low values

Sequence of Diacylglycerol lipase-beta (Mus musculus) (Q91WC9 whole entry, looked up): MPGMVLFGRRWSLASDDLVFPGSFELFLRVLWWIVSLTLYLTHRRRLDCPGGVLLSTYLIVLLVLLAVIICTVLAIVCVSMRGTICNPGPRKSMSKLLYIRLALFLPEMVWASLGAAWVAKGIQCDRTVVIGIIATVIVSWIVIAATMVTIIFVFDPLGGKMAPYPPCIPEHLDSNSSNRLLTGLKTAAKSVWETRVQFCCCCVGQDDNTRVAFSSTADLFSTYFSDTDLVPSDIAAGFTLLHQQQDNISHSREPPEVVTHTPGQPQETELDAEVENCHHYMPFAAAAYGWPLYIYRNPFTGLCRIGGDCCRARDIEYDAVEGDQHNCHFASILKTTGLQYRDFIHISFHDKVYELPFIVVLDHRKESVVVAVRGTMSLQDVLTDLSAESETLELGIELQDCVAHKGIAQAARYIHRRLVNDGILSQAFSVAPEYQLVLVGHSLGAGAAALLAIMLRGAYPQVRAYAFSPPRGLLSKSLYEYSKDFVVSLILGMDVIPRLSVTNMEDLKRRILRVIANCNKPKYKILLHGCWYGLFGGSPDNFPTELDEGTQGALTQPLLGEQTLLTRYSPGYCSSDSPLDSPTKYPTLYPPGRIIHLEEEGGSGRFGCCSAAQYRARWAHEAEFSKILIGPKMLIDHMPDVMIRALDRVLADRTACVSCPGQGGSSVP
Sequence of Acyl-protein thioesterase 1 (Mus musculus) (P97823 whole entry, looked up): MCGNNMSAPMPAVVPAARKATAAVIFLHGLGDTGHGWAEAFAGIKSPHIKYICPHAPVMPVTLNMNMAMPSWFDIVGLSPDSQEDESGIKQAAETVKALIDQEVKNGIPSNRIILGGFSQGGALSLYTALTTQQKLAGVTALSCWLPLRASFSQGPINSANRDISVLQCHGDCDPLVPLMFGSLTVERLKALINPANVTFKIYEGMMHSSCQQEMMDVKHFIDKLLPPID
Sequence of Platelet-activating factor acetylhydrolase 2, cytoplasmic (Mus musculus) (Q8VDG7 whole entry, looked up): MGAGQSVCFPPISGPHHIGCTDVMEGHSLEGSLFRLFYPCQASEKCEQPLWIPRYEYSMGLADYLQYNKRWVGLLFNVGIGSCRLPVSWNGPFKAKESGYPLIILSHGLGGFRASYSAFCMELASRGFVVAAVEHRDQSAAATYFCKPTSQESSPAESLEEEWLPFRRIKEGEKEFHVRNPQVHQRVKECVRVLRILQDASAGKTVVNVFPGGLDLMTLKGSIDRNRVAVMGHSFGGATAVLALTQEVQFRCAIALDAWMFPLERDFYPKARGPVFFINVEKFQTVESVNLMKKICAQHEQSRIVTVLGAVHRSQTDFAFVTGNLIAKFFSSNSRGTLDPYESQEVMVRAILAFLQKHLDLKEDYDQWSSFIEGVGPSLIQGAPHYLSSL
Sequence of Palmitoyl-protein thioesterase ABHD10, mitochondrial (Mus musculus) (Q6PE15 whole entry, looked up): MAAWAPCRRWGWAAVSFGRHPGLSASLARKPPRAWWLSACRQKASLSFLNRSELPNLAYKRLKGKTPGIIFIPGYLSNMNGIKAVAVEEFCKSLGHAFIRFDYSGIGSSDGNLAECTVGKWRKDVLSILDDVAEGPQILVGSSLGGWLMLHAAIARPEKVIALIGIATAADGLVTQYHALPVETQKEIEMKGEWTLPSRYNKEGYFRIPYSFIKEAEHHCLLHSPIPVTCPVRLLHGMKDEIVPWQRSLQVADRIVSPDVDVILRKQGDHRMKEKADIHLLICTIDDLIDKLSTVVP
Sequence of Prolyl endopeptidase (Mus musculus) (Q9QUR6 whole entry, looked up): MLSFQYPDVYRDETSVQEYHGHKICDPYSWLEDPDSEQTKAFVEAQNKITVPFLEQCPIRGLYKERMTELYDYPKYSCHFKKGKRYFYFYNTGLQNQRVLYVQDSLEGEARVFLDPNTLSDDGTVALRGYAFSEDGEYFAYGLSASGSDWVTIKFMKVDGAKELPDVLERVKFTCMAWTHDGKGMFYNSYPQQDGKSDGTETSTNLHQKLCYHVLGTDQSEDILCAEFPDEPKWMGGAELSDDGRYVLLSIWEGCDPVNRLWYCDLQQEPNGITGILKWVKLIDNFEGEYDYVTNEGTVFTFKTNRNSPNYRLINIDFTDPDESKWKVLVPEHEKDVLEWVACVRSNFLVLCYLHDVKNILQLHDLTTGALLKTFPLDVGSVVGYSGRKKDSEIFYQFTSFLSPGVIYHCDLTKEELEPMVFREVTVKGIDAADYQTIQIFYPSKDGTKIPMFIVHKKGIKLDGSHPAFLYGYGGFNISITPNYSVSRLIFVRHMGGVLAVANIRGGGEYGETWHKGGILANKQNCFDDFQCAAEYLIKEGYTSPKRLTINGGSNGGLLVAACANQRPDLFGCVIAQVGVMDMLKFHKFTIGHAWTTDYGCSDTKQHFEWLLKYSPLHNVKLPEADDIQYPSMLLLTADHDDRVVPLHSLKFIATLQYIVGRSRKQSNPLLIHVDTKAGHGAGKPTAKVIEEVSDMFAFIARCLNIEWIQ
Sequence of Monoacylglycerol lipase ABHD6 (Mus musculus) (Q8R2Y0 whole entry, looked up): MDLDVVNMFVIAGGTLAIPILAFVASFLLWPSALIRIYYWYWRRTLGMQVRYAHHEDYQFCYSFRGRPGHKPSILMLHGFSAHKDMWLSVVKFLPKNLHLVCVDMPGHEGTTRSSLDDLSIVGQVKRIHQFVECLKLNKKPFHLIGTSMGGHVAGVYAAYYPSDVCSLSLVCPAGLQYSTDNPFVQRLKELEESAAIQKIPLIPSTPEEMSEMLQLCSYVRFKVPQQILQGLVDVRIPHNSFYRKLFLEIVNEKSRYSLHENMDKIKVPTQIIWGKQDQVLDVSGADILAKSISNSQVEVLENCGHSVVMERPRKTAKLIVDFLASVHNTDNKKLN

COc1ccc(-c2ccc(-c3cn(C(=O)N4CCCCC4c4ccccc4)nn3)cc2)cc1 (configuration not stated)
SILAC ratio (inhibitor/DMSO) [1]: 1.17 (inactive) | SILAC ratio (inhibitor/DMSO) (Pafah1b3): 1.15 (inactive) | SILAC ratio (inhibitor/DMSO) (Qrsl1): 1.47 (inactive) | SILAC ratio (inhibitor/DMSO) (Kiaa1363): 1.39 (inactive) | SILAC ratio (inhibitor/DMSO) [2]: 1.07 (inactive) | SILAC ratio (inhibitor/DMSO) (Dpp8): 1.17 (inactive) | SILAC ratio (inhibitor/DMSO) (Fasn): 1.19 (inactive) | SILAC ratio (inhibitor/DMSO) (Prcp): 0.86 (inactive) | SILAC ratio (inhibitor/DMSO) (Ache): 1.23 (inactive) | SILAC ratio (inhibitor/DMSO) (D230012E17Rik): 1.13 (inactive) | SILAC ratio (inhibitor/DMSO) (Prepl): 1 (inactive) | SILAC ratio (inhibitor/DMSO) (Fam108c): 1.13 (inactive) | SILAC ratio (inhibitor/DMSO) (Lypla2): 1.13 (inactive) | SILAC ratio (inhibitor/DMSO) (Pnpla7): 1.65 (inactive) | SILAC ratio (inhibitor/DMSO) (Bat5): 1.27 (inactive) | SILAC ratio (inhibitor/DMSO) (Acot2): 1.47 (inactive) | SILAC ratio (inhibitor/DMSO) (Fam108a): 1.33 (inactive) | SILAC ratio (inhibitor/DMSO) (Pnpla8): 1.33 (inactive) | SILAC ratio (inhibitor/DMSO) (Iah1): 1.15 (inactive) | SILAC ratio (inhibitor/DMSO) (Lactb): 1.05 (inactive) | SILAC ratio (inhibitor/DMSO) (Lipe): 1.21 (inactive) | SILAC ratio (inhibitor/DMSO) (Dpp7): 1.29 (inactive) | SILAC ratio (inhibitor/DMSO) (Pla2g6): 1.47 (inactive) | SILAC ratio (inhibitor/DMSO) (Lonp1): 1.73 (inactive) | SILAC ratio (inhibitor/DMSO) [3]: 1.1 (inactive) | SILAC ratio (inhibitor/DMSO) (Lyplal1): 1.61 (inactive) | SILAC ratio (inhibitor/DMSO) [4]: 1.05 (inactive) | SILAC ratio (inhibitor/DMSO) (Lypla3): 1.1 (inactive) | SILAC ratio (inhibitor/DMSO) (Pafah1b2): 1.19 (inactive) | SILAC ratio (inhibitor/DMSO) [5]: 1.05 (inactive) | SILAC ratio (inhibitor/DMSO) (Esd): 1.34 (inactive) | SILAC ratio (inhibitor/DMSO) (Abhd11): 1.5 (inactive) | SILAC ratio (inhibitor/DMSO) (Parl): 1.4 (inactive) | SILAC ratio (inhibitor/DMSO) (Serhl): 1.2 (inactive) | SILAC ratio (inhibitor/DMSO) (Dpp9): 1.06 (inactive) | SILAC ratio (inhibitor/DMSO) (Ctsa): 1.46 (inactive) | SILAC ratio (inhibitor/DMSO) (Ppt2): 1.17 (inactive) | SILAC ratio (inhibitor/DMSO) (Faah): 0.95 (inactive) | SILAC ratio (inhibitor/DMSO) (Abhd12): 1.3 (inactive) | SILAC ratio (inhibitor/DMSO) (Tpp2): 1.43 (inactive) | SILAC ratio (inhibitor/DMSO) (Pnpla6): 1.4 (inactive) | SILAC ratio (inhibitor/DMSO) (Htra2): 1.29 (inactive) | SILAC ratio (inhibitor/DMSO) [6]: 0.05 | SILAC ratio (inhibitor/DMSO) (Apeh): 1.13 (inactive) | SILAC ratio (inhibitor/DMSO) (Pme1): 1.29 (inactive) | SILAC ratio (inhibitor/DMSO) (Fam108b): 1.15 (inactive) | SILAC ratio (inhibitor/DMSO) (Rbbp9): 1.4 (inactive)
